Experimental data published in US9395375B2, “Method of treating sigma 1 receptor-expressing tumors with interleukin 24” (Research Foundation of the City University of New York, priority 2013, dated 2016).

What was measured:
prostate DU145 = test: Calcium imaging (Fura-2), cytosolic calcium; assay type: cell-based, human; conditions: Ad.IL-24 plus 10 μM (+)-SKF10047, 12 hours
Description: FIG. 2B depicts a ratio of calcium ratios for cells infected with 100 pfu/cell of Ad.vector or Ad.IL-24, and treated with or without 10 μM (+)-SKF10047. The ratios are the levels cytosolic calcium at T=0 and T=12 hours. A determination was made concerning whether Ad.IL-24 caused any changes in the cytosolic levels of Ca^++ in prostate cancer cells and if Ca^++ mobilization is S1R-dependent after Ad.IL-24 infection. Ad.IL-24 infection increased cytosolic Ca^++ levels in prostate DU145 within 12 hours. The increase in Ca^++ was blocked by S1R agonist (+)-SKF10047.
Calcium imaging. For Calcium (Ca^++) imaging, cells were plated in 35 mm glass bottom petri dishes (MatTek) and allowed to attach for 12 h prior to treatment(s). Inhibitors were added 4 h after infection with adenovirus. After 12 h, cells were then rinsed with a Ringer's solution maintained at 37° C. Cells were then incubated in Ringer's solution containing 0.5 μM Fura-2 tetra-acetoxymethyl ester (Fura-2) (Molecular Probes), 10% Pluronic F127 and 250 μm sulfinpyrazone (Sigma-Aldrich, Inc) for 40 min at 22° C. Fura-2 was excited by alternating 340 and 380 nm light and images were obtained every 50 ms as a measure of Ca^++ concentration. Background intensity was zero. […]

DU-145 cells = test: Reactive oxygen species (ROS) generation, DCFH-DA fluorescence; assay type: cell-based, human; conditions: Ad.IL-24 plus 10 μM (+)SKF-10047 for 24 h
Description: Intracellular ROS levels were measured with 10 μM DCF-DA 30 min after treatments. The results are expressed as the mean±S.D. of three independent experiments. The time course of mitochondrial changes (ROS generation) were determined after treatment of DU145 cells with Ad.IL-24. Cells were infected with Ad.IL-24, collected at 24 h, and stained for ROS production with dichlorofluorescin diacetate (DCFH-DA). […] Taken together, the inhibition by an S1R agonist of IL-24-mediated ER stress, Ca^++ mobilization and ROS production, further strengthen the hypothesis that IL-24 action in cancer cells is mediated by an antagonistic effect of IL-24 on S1R.
Assessment of reactive oxygen species (ROS) generation. DU-145 cells were seeded in 96-well plates at a concentration of 1×10^4 cells/well and were infected with Ad.IL-24 for 12 h. The cell cultures were treated with 10 μM 2,7-dichloro-fluorescein diacetate (DCFH-DA; Sigma-Aldrich, St. Louis, Mo.) in PBS for 30 min After incubation, the media was discarded, and the cells were washed with PBS. The fluorescence intensity was determined using a fluorescence plate reader at 485 nm for excitation and 530 nm for emission.

[1] = tested on: metastatic prostate cancer cell lines (LNCaP, DU145 and PC-3); test: AnnexinV-FITC/PI apoptosis assay after Ad.IL-24 infection with or without S1R agonist; assay type: cell-based, human; conditions: for apoptosis by Ad.IL-24 (summary statements): prostate cancer cells, effect of S1R agonist
Text: (§1) Referring to FIG. 1A, FIG. 1B and FIG. 1C, to test this hypothesis Ad.IL-24 was used to treat normal human immortalized epithelial cells (RWPE1), and three metastatic prostate cancer cell lines (LNCaP, DU145 and PC-3) in the presence or absence of the specific S1R agonist, (+)SKF-10047, and measured cell viability and induction of apoptosis by MTT, clonogenic, and AnnexinV-FITC/PI assays. (+)SKF-10047 inhibited Ad.IL-24-mediated killing in PC-3, LNCaP and DU145 cells.
(§2) In FIG. 1A, cells were infected with 100 pfu/cell of Ad.vector or Ad.IL-24, and treated with or without 10 μM (+)-SKF10047—a S1R agonist. Cell viability was determined by MTT assay 4 days post-infection. MTT absorbance of untreated control cells was set at 1 to determine relative number of viable cells. […] In FIG. 1B, cells were incubated in the absence or presence of 10 μM (+)-SKF10047 after infection with Ad.IL-24. Forty-eight hours post-infection, percentage of apoptosis was determined by staining with AnnexinV-FITC/PI. […] In FIG. 1C, cells were incubated in the absence or presence of 10 μM (+)-SKF10047 after infection with Ad.IL-24. Cells were subjected to clonogenic assay for 2 weeks. Results shown are an average of three independent experiments ±SD.
Annexin V binding assays. Cells were trypsinized, washed once with complete medium and PBS, resuspended in 0.5 ml of binding buffer containing 2.5 mmol/L CaCl2, and stained with allophycocyanin-labeled Annexin V (Becton Dickinson Biosciences, Palo Alto, Calif.) and propidium iodide (PI) for 15 min at room temperature. Flow cytometry assays were performed as described in Sauane M, Su Z Z, Dash R, et al. “Ceramide plays a prominent role in MDA-7/IL-24-induced cancer-specific apoptosis” J Cell Physiol. 2010 March; 222(3):546-55.

[2] = tested on: metastatic prostate cancer cell lines (LNCaP, DU145 and PC-3); test: Clonogenic (colony formation) assay after Ad.IL-24 infection with or without S1R agonist; assay type: cell-based, human; conditions: Ad.IL-24 plus 10 μM (+)-SKF10047; 2 weeks
Text: as §1, §2
Colony formation assays. Cells were infected with 100 pfu/cell with Ad.vector or Ad.IL-24. The next day, 200 to 500 cells were seeded to determine colony-forming ability. […]

[3] = tested on: metastatic prostate cancer cell lines (LNCaP, DU145 and PC-3); test: MTT cell viability assay after Ad.IL-24 infection with or without S1R agonist; assay type: cell-based, human
Text: as §1
as §2, with “Cells were subjected to clonogenic assay for 2 weeks. Results shown are an average of three independent experiments ±SD.” left out
MTT Assays. […] Cell growth and viable cell numbers were monitored by 3-(4,5 dimethylthiazol-2-yl)-2,5-diphenyltetrazolium bromide (MTT) staining as described in Sauane M, Su Z Z, Dash R, et al. “Ceramide plays a prominent role in MDA-7/IL-24-induced cancer-specific apoptosis” J Cell Physiol. […]

[4] = tested on: BiP, CHOP, and p-eIF2a proteins; test: Western blot analysis of ER stress markers; assay type: cell-based; conditions: 100 pfu/cell Ad.IL-24 plus 10 μM (+)-SKF10047; 48 h
Description: Cells were infected with 100 pfu/cell of Ad.vector or Ad.IL-24, and treated with or without 10 μM (+)-SKF10047 (SKF) for indicated times. In FIG. 2A, changes in BiP, CHOP, and p-eIF2a proteins were evaluated by Western blot analysis 48 h after indicated treatments. […] Up-regulation by IL-24 of several ER stress markers is shown, including p-eIF2a, CHOP, and BiP, were inhibited by treatment with (+)SKF-10047.
Western Blot Analysis. Protein extracts were prepared with RIPA buffer containing a mixture of protease inhibitors as described in Sauane M, Su Z Z, Dash R, et al. “Ceramide plays a prominent role in MDA-7/IL-24-induced cancer-specific apoptosis” J Cell Physiol. 2010 March; 222(3):546-55. Fifty micrograms of protein was applied to a 12% SDS/PAGE and transferred to nitrocellulose membranes. The membranes were probed with polyclonal or monoclonal antibodies to IL-24, p-eIF2a, BiP, CHOP, Sigma 1 Receptor, and beta-actin.

S1R [5] = biological target: T1, S1R (Homo sapiens, UniProt Q99720); test: Immunofluorescence co-localization of IL-24 and S1R; assay type: cell-based; conditions: DU145 cells infected with Ad.IL-24; 24 h; confocal immunofluorescence
T1 construct: DU-145 cells were infected with Ad.IL-24; endogenous in cells; host or cells: DU145 cells (ATCC), infected with Ad.IL-24 or Ad.vector
T1 sequence (Q99720 whole entry): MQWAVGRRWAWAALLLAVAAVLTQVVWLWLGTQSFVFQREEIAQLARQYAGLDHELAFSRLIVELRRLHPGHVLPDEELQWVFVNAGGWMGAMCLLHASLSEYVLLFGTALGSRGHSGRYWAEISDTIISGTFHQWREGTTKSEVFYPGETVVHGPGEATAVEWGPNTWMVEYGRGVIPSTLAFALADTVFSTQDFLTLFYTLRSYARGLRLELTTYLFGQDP
Description: In FIG. 3A and FIG. 3B, comparative co-localization of IL-24 and S1R proteins was analyzed in DU145 cells after infection with the Ad.IL-24 virus. […] DU-145 cells were infected with Ad.IL-24. After 24 h, cells were fixed and IL-24 and S1R proteins were detected by immunofluorescence using anti-IL-24 and anti-S1R antibodies. The analysis of co-localization of IL-24 and S1R was performed using a DMI6000B inverted confocal microscope with TCS SP5 system (Leica Microsystems CMS). Without wishing to be bound to any particular theory, S1R is believed to interact with IL-24.
Immunofluorescence. Cells were seeded onto chamber slides (Falcon; BD Biosciences, San Jose, Calif.) and maintained in DMEM with 10% fetal bovine calf serum, 24 hours postinfection, cells were fixed with 2% paraformaldehyde, permeabilized by 0.1% Triton X-100, and then incubated with primary antibodies: IL-24, and S1R. Controls were incubated with only the secondary antibodies under the same experimental conditions.

S1R [6] = biological target: T1, S1R; test: Co-immunoprecipitation of S1R with IL-24; assay type: binding; conditions: 100 pfu/cell Ad.IL-24, 48 hours
Description: In FIG. 3A, DU145 cells were infected with 100 pfu/cell of Ad.vector or Ad.IL-24 and immunoprecipitation analysis was done 48 hours later using S1R antibody.
In FIG. 3B, DU-145 cells were infected with 100 pfu/cell of Ad.vector or Ad.IL-24 and immunoprecipitation analysis was done 48 hours later using IL-24 antibody.
Co-immunoprecipitation of S1R with IL-24. Cells were infected with Ad.vector or Ad.IL-24. After 48 hours, protein was extracted from subconfluent cultures using lysis buffer (Pierce, Rockford, Ill.) containing 1 mM phenylmethlsulfonylfluoride (Sigma-Aldrich, Inc) and quantified using the BCA protein assay kit (Pierce, Rockford, Ill.). Antibodies were conjugated to Protein-G beads according, the Sigma Protein-G Immunoprecipitation Kit manufacturer's instructions (Sigma-Aldrich, Inc). Western blot analysis was done as described before using the following primary antibodies at 1:1,000 dilutions: anti-IL-24, and anti-S1R. Secondary antibodies specific for heavy chain of immunoglobulin G (IgG) were used as the light chain of IgG interfered with detection of IL-24 because of similar size.

| Molecule | increase in Ca++ after Ad.IL-24 infection (FIG. 2B) (prostate DU145) | Ad.IL-24 increased ROS (FIG. 2C) (DU-145 cells) | cytotoxic effect of Ad.IL-24, percentage of apoptosis by AnnexinV-FITC/PI (FIG. 1B) ([1]; Ad.IL-24 plus 10 μM (+)-SKF10047, 48 hours post-infection) | apoptosis by Ad.IL-24 (summary statements) [1] | apoptosis by Ad.IL-24 (summary statements) ([1]; listed as (+) SK-10047) | cytotoxic effect of Ad.IL-24, clonogenic assay (FIG. 1C) [2] | cytotoxic effect of Ad.IL-24, cell viability by MTT (FIG. 1A) ([3]; 100 pfu/cell Ad.IL-24 plus 10 μM (+)-SKF10047, 4 days post-infection) | Ad.IL-24-mediated killing ([3]; PC-3, LNCaP and DU145 cells, viability and apoptosis by MTT, clonogenic and AnnexinV-FITC/PI assays, effect of S1R agonist) | Up-regulation by IL-24 of ER stress markers p-eIF2a, CHOP, and BiP (FIG. 2A) [4] | co-localization with S1R (S1R [5]) | interaction with S1R: immunoprecipitation using anti-S1R antibody, immunoblotting with anti-IL-24 antibody (FIG. 3A) (S1R [6]; DU145 cells) | interaction with S1R: immunoprecipitation using anti-IL-24 antibody, probed with anti-S1R antibody (FIG. 3B) (S1R [6]; DU-145 cells) |
| --- | --- | --- | --- | --- | --- | --- | --- | --- | --- | --- | --- | --- |
| (+)-SKF10047 | blocked | inhibited | substantially negated | inhibits | blocks | substantially negated | substantially negated | inhibited | inhibited | – | – | – |
| IL-24: member of the IL-10 cytokine family, immunomodulatory cytokine generated from Ad.IL-24 infection (protein, UniProt Q13007 52-206, looked up) Interleukin-24: QEFHFGPCQVKGVVPQKLWEAFWAVKDTMQAQDNITSARLLQQEVLQNVSDAESCYLVHTLLEFYLKTVFKNYHNRTVEVRTLKSFSTLANNFVLIVSQLQPSQENEMFSIRDSAHRRFLLFRRAFKQLDVEAALTKALGEVDILLTWMQKFYKL | – | – | – | – | – | – | – | – | – | co-localized | physical interaction | coimmunoprecipitated |
